Several values for one entry are separate records, joined by “and”; a condition that tells them apart may be missing. Identical values can stand only once.
First: NNC(=O)c1ccncc1 [isonicotinic acid hydrazide]
Second: CCOC(=O)c1ccc(O)cc1 [Ethyl 4-hydroxybenzoate]
The melting point of the first is higher: 172 °C for the first, 116 °C for the second.

Going from `CCOC(=O)c1c[nH]nc1C(F)(F)F` [ethyl 3-trifluoromethyl-1h-pyrazole-4-carboxylate] to `O=C(O)c1cnccc1C(F)(F)F` [4-(trifluoromethyl)nicotinic acid], the melting point rises from 144 °C to 148 °C.

Going from `O[C@H](c1ccccc1)[C@@H](O)c1ccccc1` [meso-hydrobenzoin] to `CCC(c1ccccc1)c1ccccc1` [1,1-diphenylpropane], the melting point falls from 135 °C to 14 °C.

First: CC1=CCCCC1 [1-methylcyclohexene]
Second: CC1CCCCC1 [Methylcyclohexane]
The melting point of the first is higher: -120 °C for the first, -127 °C for the second.

Going from `C1=CCCC1` [cyclopentene] to `ClC1CCCCC1` [chlorocyclohexane], the melting point rises from -135 °C to -44 °C.

Going from `O=Cc1ccc([N+](=O)[O-])cc1` [4-nitrobenzaldehyde] to `Cc1ccc(C=O)cc1` [p-tolualdehyde], the melting point falls from 105 °C to -6 °C.

Compared with `Cc1ccc(C(=O)c2ccccc2C(=O)O)cc1` [2-(4-methylbenzoyl)benzoic acid], `CC(=O)Nc1ccc(C(=O)O)cc1` [4-acetamidobenzoic acid] is higher in melting point: 140 °C for the first, 260 °C for the second.

Compared with `CCCCCOC(C)=O` [N-pentyl acetate], `CCCOC(C)=O` [N-propyl acetate] is higher in melting point: -100 °C for the first, -92 °C for the second.

First: Cc1n[nH]c(=S)[nH]c1=O [6-aza-2-thiothymine]
Second: O=C(O)c1cc(=O)[nH]c(=O)[nH]1 [orotic acid]
The melting point of the first is lower: 220 °C for the first, 345 °C for the second.

Compared with `Cc1cc(C)cc(C)c1` [Mesitylene], `Cc1cc(N)ccc1F` [4-fluoro-3-methylaniline] is higher in melting point: -45 °C for the first, 34 °C for the second.

Going from `Nc1cccc2cnccc12` [5-aminoisoquinoline] to `Cc1cccnc1` [3-picoline], the melting point falls from 129 °C to -18 °C.

Going from `COc1cccc2oc(-c3ccccc3)c(O)c(=O)c12` [3-hydroxy-5-methoxyflavone] to `c1ccc2c(c1)oc1ccccc12` [Dibenzofuran], the melting point falls from 175 °C to 82 °C.

Compared with `CCCCCCCCCCNCCCCCCCCCC` [N-Decyldecan-1-amine], `C=CCCCCCC` [1-octene] is lower in melting point: 43 °C for the first, -102 °C for the second.

First: O=C(O)/C=C/c1ccccc1 [cinnamic acid]
Second: C=Cc1ccccc1 [styrene]
The melting point of the first is higher: 133 °C for the first, -31 °C for the second.

First: CCN1C(=O)C=CC1=O [N-ethylmaleimide]
Second: O=C1CNC(=O)N1 [hydantoin]
The melting point of the first is lower: 45 °C for the first, 222 °C for the second.

Going from `O=C(O)c1cc2cc(Br)ccc2c(Br)c1O` [1,6-dibromo-2-hydroxynaphthalene-3-carboxylic acid] to `O=C(O)c1cccc(Br)c1` [m-bromobenzoic acid], the melting point falls from 251 °C to 157 °C.

Going from `Nc1c(Br)cccc1Br` [2,6-dibromoaniline] to `CC(=O)c1ccccc1N` [o-aminoacetophenone], the melting point falls from 80 °C to 20 °C.

Compared with `O=C(O)c1ccc(F)cc1O` [4-fluorosalicylic acid], `Nc1ccc(O)c(C(=O)O)c1` [5-aminosalicylic acid] is higher in melting point: 188 °C for the first, 280 °C for the second.

First: O=C(O)c1cccnc1Oc1ccc(F)cc1 [2-(4-fluorophenoxy)nicotinic acid]
Second: C/C(=N\Nc1cccc2cccnc12)c1cccs1 [8-{(2E)-2-[1-(2-Thienyl)ethylidene]hydrazino}quinoline]
The melting point of the first is higher: 184 °C for the first, 160 °C for the second.

Compared with `O=Cc1ccc(Cl)c(Cl)c1` [3,4-dichlorobenzaldehyde], `Nc1ccc(Cl)cc1Cl` [2,4-dichloroaniline] is higher in melting point: 44 °C for the first, 61 °C for the second.

Going from `c1ccc2c(c1)CC1(OCCO1)c1ccccc1CC21OCCO1` to `O=C(CC(=O)c1ccccc1)c1ccccc1` [1,3-diphenyl-1,3-propanedione], the melting point falls from 144 °C to 78 °C.

Compared with `CCc1ccc(NC(=S)NN)cc1` [4-(4-ethylphenyl)-3-thiosemicarbazide], `COC(=O)c1ccc(C(C)=O)cc1` [methyl_4-acetylbenzoate] is lower in melting point: 130 °C for the first, 95 °C for the second.

Going from `O=[N+]([O-])c1c(Cl)cc(Cl)cc1Cl` [1,3,5-Trichloro-2-nitrobenzene] to `Cc1cc(Cl)cc([N+](=O)[O-])c1N` [4-chloro-2-methyl-6-nitroaniline], the melting point rises from 72 °C to 122 °C.

Going from `COc1ccc(-c2csc(C(C#N)=Cc3ccc(O)cc3)n2)cc1` to `c1ccc(-c2nc3ccccc3nc2-c2ccc3ccccc3c2)cc1` [2-naphthalen-2-yl-3-phenylquinoxaline], the melting point falls from 186 °C to 122 °C.

Going from `C=CCN=C=S` [allyl isothiocyanate] to `C[C@@H](Cl)CCl` [1,2-Dichloro-Propane], the melting point falls from -80 °C to -100 °C.

First: CCSC [ethyl methyl sulfide]
Second: CCP(=O)(CC)CC [triethylphosphine oxide]
The melting point of the first is lower: -106 °C for the first, 49 °C for the second.

Going from `CCOC(=O)c1cc(-c2ccccc2)n(-c2ccc(Cl)cc2Cl)n1` to `CCOC(=O)C1=C(C)NC(=S)NC1c1ccccc1` (stereo not given), the melting point rises from 124 °C to 205 °C.

First: O=[N+]([O-])c1ccccc1O [nitrophenol]
Second: O=[N+]([O-])c1cccc(F)c1O [2-fluoro-6-nitrophenol]
The melting point of the first is lower: 45 °C for the first, 93 °C for the second.

Going from `Cc1nnc(S)s1` [5-methyl-1,3,4-thiadiazole-2-thiol] to `Cc1ccc(N)cc1O` [5-Amino-o-cresol], the melting point falls from 187 °C to 161 °C.

Compared with `CC(C)O` [Isopropyl Alcohol], `CC(O)CO` (stereo not given) [1,2-propanediol] is higher in melting point: -89.5 °C for the first, -60 °C for the second.

Compared with `CC(=O)OCC(=O)[C@@]1(O)CC[C@H]2[C@@H]3CCC4=CC(=O)CC[C@]4(C)[C@H]3C(=O)C[C@@]21C` [cortisone acetate], `C[C@]12CCC(=O)C=C1CC[C@@H]1[C@@H]2CC[C@]2(C)C(=O)CC[C@@]12O` [14-hydroxyandrost-4-ene-3,17-dione] is higher in melting point: 222 °C for the first, 258 °C for the second.

Compared with `CSC(SC)=C1CCCC(=C(SC)SC)C1=C(C#N)C#N`, `C/C(C)=CCN2CC[C@@]1(C)c3cc(O)ccc3C[C@@H]2[C@@H]1C` [pentazocin] is lower in melting point: 156 °C for the first, 146 °C for the second.

Compared with `N=C(N)NCC1COc2ccccc2O1` (stereo not given) [guanoxan], `NC(=O)c1ccccc1N` [o-aminobenzamide] is lower in melting point: 164 °C for the first, 113 °C for the second.

Compared with `N#Cc1cccnc1` [3-cyanopyridine], `N#Cc1ccc(C(N)=O)cc1` [4-cyanobenzamide] is higher in melting point: 50 °C for the first, 227 °C for the second.

Going from `Cc1cccc(C(=O)O)c1` [m-toluic_acid] to `OB(O)c1cccc(Cl)c1Cl` [2,3-dichlorobenzeneboronic acid], the melting point rises from 110 °C to 238 °C.

Compared with `O=[N+]([O-])c1c(Cl)c(Cl)c(Cl)c(Cl)c1Cl` [pentachloronitrobenzene], `Clc1c(Cl)c(Cl)c(Cl)c(Cl)c1Cl` [Hexachlorobenzene] is higher in melting point: 144 °C for the first, 228 °C for the second.

First: CCCOc1ccc2[nH]c(NC(=O)OC)nc2c1 [oxibendazole]
Second: COc1ccc(C(C)=O)cc1OC [3,4-dimethoxyacetophenone]
The melting point of the first is higher: 230 °C for the first, 51 °C for the second.

First: O=C(O)CCN1C(=O)c2ccccc2C1=O [3-phthalimidopropionic acid]
Second: Nc1ccc(OCCCCCN2C(=O)c3ccccc3C2=O)cc1 [amphotalide]
The melting point of the first is higher: 152 °C for the first, 113 °C for the second.

Going from `CCc1c(C)[nH]c2c1C(=O)C(CN1CCOCC1)CC2` (stereo not given) [molindone] to `CCOC(=O)Nc1ccc2c(c1)N(C(=O)CCN1CCOCC1)c1ccccc1S2` [moricizine], the melting point falls from 180 °C to 156 °C.

First: CC(=O)N[C@H]1C(O)O[C@H](CO)[C@@H](O)[C@@H]1O (stereo partly drawn) [N-Acetyl-D-glucosamine]
Second: OC[C@@H]1OC(O)[C@@H](O)[C@H]1O (stereo partly drawn) [L-ribose]
The melting point of the first is higher: 205 °C for the first, 87 °C for the second.

Compared with `c1cc(OCC2CO2)cc(OCC2CO2)c1` (stereo not given) [resorcinol diglycidyl ether], `O=C(O)COc1ccccc1` [phenoxyacetic acid] is higher in melting point: 34 °C for the first, 100 °C for the second.

Going from `O=c1cc(-c2ccccc2)[nH]o1` [3-phenyl-5-isoxazolone] to `Cc1ccc2ncccc2c1[N+](=O)[O-]` [6-methyl-5-nitroquinoline], the melting point falls from 152 °C to 117 °C.

Compared with `O=[N+]([O-])c1ccc(Cl)c([N+](=O)[O-])c1` [1-Chloro-2,4-dinitrobenzene], `COP(=S)(OC)Oc1ccc([N+](=O)[O-])cc1` [O,O-Dimethyl O-(4-nitrophenyl) phosphorothioate] is lower in melting point: 53 °C for the first, 36 °C for the second.

Going from `C#CC1(O)CCC2C3CCc4cc(O)ccc4C3CCC21C` (stereo not given) [17a-Ethynylestradiol] to `CC(C)CCCC(C)C1CCC2C3CC=C4CC(OCOc5ccc(Cl)cc5)CCC4(C)C3CCC12C` (stereo not given) [3-[(4-chlorophenoxy)methoxy]cholest-5-ene], the melting point rises from 141 °C to 145 °C.

Compared with `N#CCc1cccc(CC#N)c1` [1,3-phenylenediacetonitrile], `COc1cccc(C=O)c1O` [o-vanillin] is higher in melting point: 34 °C for the first, 44.5 °C for the second.

Going from `O=S(=O)(O)Cl` [Sulfurochloridic acid] to `CC(=O)N[C@@H](CS)C(=O)O` [N-acetyl-l-cysteine], the melting point rises from -80 °C to 110 °C.

First: [2H]C(Cl)(Cl)Cl [Trichloro(~2~H)methane]
Second: O=C(Cl)c1cc(Cl)cc(Cl)c1 [3,5-dichlorobenzoyl chloride]
The melting point of the first is lower: -64 °C for the first, 26 °C for the second.

Compared with `NC12CC3CC(CC(C3)C1)C2` [1-adamantylamine], `OC[C@@H]1CCCN2CCCC[C@H]12` [lupinine] is lower in melting point: 180 °C for the first, 64 °C for the second.

First: N#CCC(=O)NN [cyanoacetic acid hydrazide]
Second: COc1cc(OC)cc(C(C)=O)c1 [3,5-dimethoxyacetophenone]
The melting point of the first is higher: 108 °C for the first, 34 °C for the second.

Compared with `CC(C)(C)OC(=O)N1CCC[C@H]1C(=O)O` [N-boc-L-proline], `CCC1(C(C)C)C(=O)NC(=O)NC1=O` [probarbital] is higher in melting point: 134 °C for the first, 203 °C for the second.

Compound `C1=CC=CC=CC=C1` [Cycloocta-1,3,5,7-tetraene] has a melting point of -27 °C.

With `Oc1cccc(Cl)c1Cl` [2,3-dichlorophenol] the melting point was 58 °C and 56 °C.
For `Oc1ccc(Cl)cc1Cl` [2,4-dichlorophenol], the melting point was 43 °C and 45 °C and 42.5 °C.
In the case of `O=P1(NCCCl)OCCCN1CCCl` (stereo not given) [ifosfamide], the melting point is reported as 45.5 °C and 48 °C.
For `Cc1noc(NS(=O)(=O)c2ccc(N)cc2)c1C` [sulfisoxazole], the melting point was 191 °C and 194 °C.
